Laboratory results from ChEMBL document CHEMBL1201862, “PubChem BioAssay data set” (2004).
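Exposure lasted 48 hours, with cells grown in 96-well plates and compounds tested at five concentrations. GI50: concentration for 50% inhibition of growth.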 Activity calls are given as the source filed them. Rule as the data show it: active = GI50 up to about 1.1 µM and inactive = higher.

How the values were obtained:
Assay in all cases: NCI anticancer screen, dose series, 48 h
[1] = system: RXF 393
[2] = system: PC-3
[3] = system: MCF7
[4] = system: OVCAR-4
[5] = system: SK-MEL-28
[6] = system: IGROV-1
[7] = system: HL-60
[8] = system: M14
[9] = system: CAKI-1
[10] = system: MOLT-4
[11] = system: COLO 205
[12] = system: MDA-MB-231
[13] = system: ACHN
[14] = system: TK-10
[15] = system: SNB-19
[16] = system: HOP-62
[17] = system: SNB-75
[18] = system: A549
[19] = system: NCI-H23
[20] = system: SK-MEL-5
[21] = system: KM12
[22] = system: Hs-578T
[23] = system: OVCAR-8
[24] = system: NCI/ADR-RES
[25] = system: OVCAR-3
[26] = system: DU-145
[27] = system: NCI-H226
[28] = system: SW-620
[29] = system: EKVX
[30] = system: MDA-N
[31] = system: HOP-92
[32] = system: NCI-H460
[33] = system: CCRF-CEM
[34] = system: SF-539
[35] = system: HCT-15
[36] = system: UACC-257
[37] = system: A498
[38] = system: MDA-MB-435
[39] = system: UACC-62
[40] = system: BT-549
[41] = system: HT-29
[42] = system: T47D
[43] = system: U-251
[44] = system: SK-MEL-2
[45] = system: K562
[46] = system: SF-268
[47] = system: SF-295
[48] = system: SK-OV-3
[49] = system: RPMI-8226
[50] = system: OVCAR-5
[51] = system: Malme-3M
[52] = system: SN12C
[53] = system: HCT-116
[54] = system: 786-0
[55] = system: UO-31
[56] = system: LOX IMVI
[57] = system: NCI-H522
[58] = system: HCC 2998

SMILES: O=[N+]([O-])c1ccc2c(c1)Cc1cc(/N=C/c3ccc4c(c3)OCO4)ccc1-2
- GI50 [1]: > 100 µM (inactive)
- GI50 [2]: > 100 µM (inactive)
- GI50 [3]: > 100 µM (inactive)
- GI50 [4]: > 100 µM (inactive)
- GI50 [5]: > 100 µM (inactive)
- GI50 [6]: > 100 µM (inactive)
- GI50 [7]: > 100 µM (inactive)
- GI50 [8]: > 100 µM (inactive)
- GI50 [9]: > 100 µM (inactive)
- GI50 [10]: > 100 µM (inactive)
- GI50 [11]: > 100 µM (inactive)
- GI50 [12]: > 100 µM (inactive)
- GI50 [13]: > 100 µM (inactive)
- GI50 [14]: > 100 µM (inactive)
- GI50 [15]: > 100 µM (inactive)
- GI50 [16]: > 100 µM (inactive)
- GI50 [17]: 89.7 µM (inactive)
- GI50 [18]: > 100 µM (inactive)
- GI50 [19]: > 100 µM (inactive)
- GI50 [20]: > 100 µM (inactive)
- GI50 [21]: > 100 µM (inactive)
- GI50 [22]: 80 µM (inactive)
- GI50 [23]: > 100 µM (inactive)
- GI50 [24]: > 100 µM (inactive)
- GI50 [25]: > 100 µM (inactive)
- GI50 [26]: > 100 µM (inactive)
- GI50 [27]: > 100 µM (inactive)
- GI50 [28]: > 100 µM (inactive)
- GI50 [29]: 57.1 µM (inactive)
- GI50 [30]: > 100 µM (inactive)
- GI50 [31]: > 100 µM (inactive)
- GI50 [32]: > 100 µM (inactive)
- GI50 [33]: 61.9 µM (inactive)
- GI50 [34]: > 100 µM (inactive)
- GI50 [35]: > 100 µM
- GI50 [36]: > 100 µM (inactive)
- GI50 [37]: > 100 µM (inactive)
- GI50 [38]: > 100 µM (inactive)
- GI50 [39]: > 100 µM (inactive)
- GI50 [40]: > 100 µM (inactive)
- GI50 [41]: > 100 µM (inactive)
- GI50 [42]: > 100 µM (inactive)
- GI50 [43]: > 100 µM (inactive)
- GI50 [44]: > 100 µM (inactive)
- GI50 [45]: > 100 µM (inactive)
- GI50 [46]: > 100 µM (inactive)
- GI50 [47]: > 100 µM (inactive)
- GI50 [48]: > 100 µM (inactive)
- GI50 [49]: > 100 µM (inactive)
- GI50 [50]: > 100 µM (inactive)
- GI50 [51]: > 100 µM (inactive)
- GI50 [52]: > 100 µM (inactive)
- GI50 [53]: > 100 µM (inactive)
- GI50 [54]: > 100 µM (inactive)
- GI50 [55]: > 100 µM (inactive)
- GI50 [56]: > 100 µM (inactive)
- GI50 [57]: > 100 µM (inactive)

SMILES: CCCCc1ccc(NC(=N)N)cc1
- GI50 [58]: 16.3 µM (inactive)
- GI50 [2]: 23.8 µM (inactive)
- GI50 [3]: 19.7 µM (inactive)
- GI50 [4]: 25.4 µM (inactive)
- GI50 [5]: 58.2 µM (inactive)
- GI50 [6]: 21.7 µM (inactive)
- GI50 [7]: 34.1 µM (inactive)
- GI50 [8]: 24.2 µM (inactive)
- GI50 [9]: 28.4 µM (inactive)
- GI50 [11]: 19 µM (inactive)
- GI50 [12]: 28.9 µM (inactive)
- GI50 [13]: 36.7 µM (inactive)
- GI50 [14]: 22.1 µM (inactive)
- GI50 [15]: 40.6 µM (inactive)
- GI50 [18]: 41.5 µM (inactive)
- GI50 [19]: 40.2 µM (inactive)
- GI50 [20]: 12.9 µM (inactive)
- GI50 [21]: 18.9 µM (inactive)
- GI50 [22]: 37.1 µM (inactive)
- GI50 [23]: 38.4 µM (inactive)
- GI50 [24]: 29.9 µM (inactive)
- GI50 [25]: 24.5 µM (inactive)
- GI50 [26]: 41.4 µM (inactive)
- GI50 [27]: 23.7 µM (inactive)
- GI50 [28]: 44.5 µM (inactive)
- GI50 [29]: 30 µM (inactive)
- GI50 [30]: 27.7 µM (inactive)
- GI50 [31]: 28.7 µM (inactive)
- GI50 [32]: 20.2 µM (inactive)
- GI50 [33]: 16.9 µM (inactive)
- GI50 [34]: > 10 µM (inactive)
- GI50 [35]: 33 µM
- GI50 [36]: 33.7 µM (inactive)
- GI50 [37]: 35.6 µM (inactive)
- GI50 [38]: 40.1 µM (inactive)
- GI50 [39]: 37.3 µM (inactive)
- GI50 [40]: 24.8 µM (inactive)
- GI50 [41]: 25.8 µM (inactive)
- GI50 [42]: 31.6 µM (inactive)
- GI50 [43]: 85.3 µM (inactive)
- GI50 [44]: 47.6 µM (inactive)
- GI50 [45]: 12.6 µM (inactive)
- GI50 [46]: 40.2 µM (inactive)
- GI50 [47]: 23.9 µM (inactive)
- GI50 [48]: 41.5 µM (inactive)
- GI50 [49]: 17 µM (inactive)
- GI50 [50]: 50.6 µM (inactive)
- GI50 [51]: 38.8 µM (inactive)
- GI50 [52]: 40 µM (inactive)
- GI50 [53]: 24.9 µM (inactive)
- GI50 [54]: 17.7 µM (inactive)
- GI50 [55]: 33.6 µM (inactive)
- GI50 [56]: 40 µM (inactive)
- GI50 [57]: 28.1 µM (inactive)

SMILES: CN1CN(c2ccccc2)C2(CCN(CCCN(C)c3ccc(F)cc3)CC2)C1=O
- GI50 [1]: 16.3 µM (inactive)
- GI50 [2]: 23.4 µM (inactive)
- GI50 [3]: 15.2 µM (inactive)
- GI50 [5]: 20.9 µM (inactive)
- GI50 [6]: 16.5 µM (inactive)
- GI50 [7]: 3.21 µM (inactive)
- GI50 [8]: 16.2 µM (inactive)
- GI50 [9]: 30.1 µM (inactive)
- GI50 [10]: 5.02 µM (inactive)
- GI50 [11]: 11.6 µM (inactive)
- GI50 [12]: 14.3 µM (inactive)
- GI50 [13]: 22.2 µM (inactive)
- GI50 [14]: 18.9 µM (inactive)
- GI50 [15]: 20 µM (inactive)
- GI50 [16]: 17.7 µM (inactive)
- GI50 [17]: 16.9 µM (inactive)
- GI50 [18]: 23.2 µM (inactive)
- GI50 [19]: 19.1 µM (inactive)
- GI50 [20]: 16.2 µM (inactive)
- GI50 [21]: 16 µM (inactive)
- GI50 [22]: 18.7 µM (inactive)
- GI50 [23]: 18.9 µM (inactive)
- GI50 [24]: 20.6 µM (inactive)
- GI50 [25]: 16 µM (inactive)
- GI50 [26]: 23.9 µM (inactive)
- GI50 [27]: 19.1 µM (inactive)
- GI50 [28]: 17.8 µM (inactive)
- GI50 [30]: 16.3 µM (inactive)
- GI50 [32]: 16.4 µM (inactive)
- GI50 [33]: 11.2 µM (inactive)
- GI50 [34]: 22.5 µM (inactive)
- GI50 [35]: 22.3 µM
- GI50 [36]: 17.8 µM (inactive)
- GI50 [37]: 29.4 µM (inactive)
- GI50 [38]: 18.2 µM (inactive)
- GI50 [39]: 18.7 µM (inactive)
- GI50 [40]: 15.2 µM (inactive)
- GI50 [41]: 10.1 µM (inactive)
- GI50 [42]: 16.7 µM (inactive)
- GI50 [43]: 18.6 µM (inactive)
- GI50 [44]: 17.5 µM (inactive)
- GI50 [45]: 1.58 µM (inactive)
- GI50 [46]: 20.3 µM (inactive)
- GI50 [47]: 14.9 µM (inactive)
- GI50 [48]: 17.1 µM (inactive)
- GI50 [49]: 10.7 µM (inactive)
- GI50 [50]: 17.3 µM (inactive)
- GI50 [51]: 19.5 µM (inactive)
- GI50 [52]: 34.5 µM (inactive)
- GI50 [53]: 12.8 µM (inactive)
- GI50 [54]: 18.6 µM (inactive)
- GI50 [55]: 16.2 µM (inactive)
- GI50 [56]: 15.8 µM (inactive)
- GI50 [57]: 13.9 µM (inactive)
